Data from patent US10233184B2, “7-substituted sulfonimidoylpurinone compounds and derivatives for the treatment and prophylaxis of virus infection” (Hoffmann-La Roche Inc., priority 2016, dated 2019).
Like-named read-outs stand apart in the source and are kept apart here.

Assays:
[1] = phase Ib, patients with chronic hepatitis B; cited from earlier work
[2] = Single dose PK study in male Wister-Han rats; assay type: in vivo; settings: male, Wister-Han, rat, plasma, po, 5 mg/kg, 5 mg/kg oral dosing of active form
[3] = LYSA solubility study; assay type: physicochemical; settings: aqueous solubility, 0.05M phosphate buffer pH 6.5
How it was run: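 Samples from 10 mM DMSO stock were dried, redissolved in 0.05M phosphate buffer pH 6.5, stirred 1 h, shaken 2 h, left overnight and filtered. Filtrate and 1/10 dilution quantified by HPLC-UV; solubility in μg/mL, reported as greater-than when >80% of the maximum sample amount was in solution.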

[4] = biological target: T1, human TLR7 (Homo sapiens, UniProt Q9NYK1); test: HEK293-Blue-hTLR-7 cells assay (SEAP reporter); assay type: cell-based
T1 sequence (Q9NYK1 27-1049): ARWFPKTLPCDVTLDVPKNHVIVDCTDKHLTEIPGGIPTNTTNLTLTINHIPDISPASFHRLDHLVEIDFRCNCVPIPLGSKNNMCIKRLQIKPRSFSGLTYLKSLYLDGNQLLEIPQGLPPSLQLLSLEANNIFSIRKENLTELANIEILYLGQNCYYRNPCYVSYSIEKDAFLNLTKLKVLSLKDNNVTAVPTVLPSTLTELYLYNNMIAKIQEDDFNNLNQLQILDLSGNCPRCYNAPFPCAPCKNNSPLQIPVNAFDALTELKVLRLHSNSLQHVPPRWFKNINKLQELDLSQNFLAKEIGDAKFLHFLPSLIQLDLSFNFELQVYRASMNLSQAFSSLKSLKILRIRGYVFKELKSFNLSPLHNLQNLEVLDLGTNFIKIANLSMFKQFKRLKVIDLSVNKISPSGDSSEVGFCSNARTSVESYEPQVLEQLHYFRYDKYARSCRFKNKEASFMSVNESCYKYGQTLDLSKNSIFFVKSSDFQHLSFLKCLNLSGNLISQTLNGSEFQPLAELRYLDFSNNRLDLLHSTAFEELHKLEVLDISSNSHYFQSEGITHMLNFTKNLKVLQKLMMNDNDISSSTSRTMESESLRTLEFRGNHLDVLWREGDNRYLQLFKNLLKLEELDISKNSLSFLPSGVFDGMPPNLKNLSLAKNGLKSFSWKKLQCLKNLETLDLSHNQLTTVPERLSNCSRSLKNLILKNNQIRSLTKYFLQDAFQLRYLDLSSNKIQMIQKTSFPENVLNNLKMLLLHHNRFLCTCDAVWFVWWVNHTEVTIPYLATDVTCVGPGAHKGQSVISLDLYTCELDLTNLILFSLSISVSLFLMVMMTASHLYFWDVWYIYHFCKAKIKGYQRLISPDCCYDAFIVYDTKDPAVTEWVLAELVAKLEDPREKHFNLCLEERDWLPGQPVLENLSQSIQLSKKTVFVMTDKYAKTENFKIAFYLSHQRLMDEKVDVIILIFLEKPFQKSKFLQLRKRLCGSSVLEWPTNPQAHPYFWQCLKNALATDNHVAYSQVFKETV
How it was run: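 HEK293-Blue-hTLR7 cells with NF-κB/AP-1-driven SEAP reporter exposed to serially diluted compound (1% DMSO) for 20 hrs at 37° C. Supernatant SEAP measured with QUANTI-Blue after 2 hrs at 37° C, absorbance 620~655 nm; agonism expressed as EC50.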

[5] = Portal vein study: oral PK in PVC/CAC dual cannulated rat; assay type: in vivo; settings: prodrug 10 mg/kg oral, analyte prodrug
Procedure: Surgery was performed under pentobarbital/isoflurane anesthesia. Briefly, after disinfecting the abdominal area with betadine and 70% isopropyl alcohol, a small abdominal mid-line incision was made. The cecum was pulled out and mesenteric vein was identified and isolated for about 5 mm vessel. A loose ligature was placed proximally and distal end of the vein was ligated. Make a small incision (just enough to allow the insertion of the catheter) on isolated vein and insert the PU catheter towards liver for appropriate length. The catheter was secured in place by tying the loose ligature around the cannulated vessel. The cecum was replaced into abdominal cavity. A hole was made in the right abdominal wall to make the end of catheter pass freely. The catheter was secured by suture on the abdominal wall. The abdominal muscle incision was closed with suture. A small incision was made in the scapular area to serve as the exit site of the catheter. The catheter was subcutaneously tunneled and exteriorized through the scapular incision. A fixed suture was placed in the scapular region. The patency of the catheter was checked and then exteriorized from the subcutaneous space to the dorsal neck region. After gently wiping the area, the abdominal cavity was sutured. The left carotid artery was then cannulated by inserting a PESO catheter. Both the exteriorized catheters were tied firmly on the dorsal neck region and fixed. The animals was then allowed to recover in its cage and used for study at least 3 days after surgery. All catheters were flushed once daily with heparinized saline to maintain patency. Animals were fasted overnight (n=3) and administered vial oral gavage (10 mg/kg, 10 mL/kg). Blood samples (60 μL) were collected simultaneously from the portal and carotid artery catheters at 0.083, 0.25, 0.5, 1, 2, 4, 7, 24 h. All blood samples will be transferred into microcentrifuge tubes containing 2 μL of K2EDTA (0.5M) as anti-coagulant and placed on wet ice. Then blood samples will be processed for plasma by centrifugation at approximately 4° C., 3000 g within half an hour of collection. Plasma samples will be stored in polypropylene tubes, quick frozen over dry ice and kept at −70±10° C. until LC/MS/MS analysis. Pharmacokinetic parameters (mean±SD, n=3) of prodrugs and active forms in portal and carotid samples following oral administration of prodrugs (10 mg/kg) in portal vein cannulated rat were detected and analyzed.

Row | AUC(0-t) [2] [µM·h] | Cmax [2] [nM] | concentration at 0.25 h ([2]; 0.25 h) [nM] | concentration at 0.5 h ([2]; 0.5 h) [nM] | concentration at 1 h ([2]; 1 h) [nM] | concentration at 2 h ([2]; 2 h) [nM] | concentration at 4 h ([2]; 4 h) [nM] | concentration at 8 h ([2]; 8 h) [nM] | LYSA of Prodrugs [3] [µg/mL] | Ratio (EC50(prodrug)/EC50(active form)) ([4]; EC50 of prodrug over EC50 of corresponding active form) | EC50 ([4]; HEK293-Blue-hTLR-7 cells, SEAP reporter, 20 hrs, prodrug, read-out: HEK293-hTLR-7 EC50 (Prodrug)) [µM] | AUC(0-t) ([5]; carotid artery plasma, read-out: AUC0-2 (nM · h), prodrug, Carotid sampling) [µM·h] | Cmax ([5]; carotid artery plasma, read-out: Cmax (nM), prodrug, Carotid sampling) [nM] | Tmax ([5]; carotid artery plasma, read-out: Tmax (h), prodrug, Carotid sampling) [h] | AUC(0-t) ([5]; portal vein plasma, read-out: AUC0-2 (nM · h), prodrug, Portal sampling) [µM·h] | Cmax ([5]; portal vein plasma, read-out: Cmax (nM), prodrug, Portal sampling) [nM] | Tmax ([5]; portal vein plasma, read-out: Tmax (h), prodrug, Portal sampling) [h] | Structure (SMILES) | ISG15 mRNA induction [1] | safety and tolerability [1]
1 | 0.316 | 164 | 56.3 | 33.2 | 83.4 | 136 | 16.7 | 9.49 |  |  |  |  |  |  |  |  |  | CCCCOc1nc(N)c2c(n1)N(Cc1cccc(CN3CCCC3)c1)CC(=O)N2 [GS9620, reference compound] | dose-dependent ISG15 mRNA induction | safe, well tolerated
2 |  |  |  |  |  |  |  |  | 200 | 314.0 | 27 | 0.04 | 70 | 0.083 | 0.266 | 670 | 0.083 | CCCN(C)C(=O)n1c(=O)n(Cc2ccccc2)c2nc(S(=N)(=O)CCC)nc(N)c21 (single isomer, unassigned) [Example 1-B] |  | 
